Experimental data: patent EP4707279A1, “SUBSTITUTED TRICYCLIC HETEROCYCLIC COMPOUND AS PHARMACEUTICAL FOR TREATMENT OR PREVENTION OF COVID-19” (priority 2023, dated 2024)

What follows are compounds tested on SARS-CoV-2 (assay: CPE inhibition assay, anti-SARS-CoV-2 virus activity in vitro (Test Example 4)). Conditions: CPE inhibition at 10 µM; VeroE6-TMPRSS2 cells; MOI 0.01; third day post infection; average of three tests.
Assay type: cell-based

Compound | Anti SARS-CoV-2 activity
(6 R,9 S,11aR,11bR)-1,3-Dibenzyl-N-(bicyclo[1,1,1]penta n-1-yl) 11b-Hydroxy-6-isopropyl-2,4,7-trioxodecahydro- 2H-pyrrolo [2",1":3,4]pyrazino[ 1,2-a][1,3,5] triazine-9-carboxamide [Compound 3I] | A (a CPE inhibition effect of 5% or more)
(6R,9S,10aR)-1,3,6-tribenzyl-10b-hydroxy-N-(naphthalen-2-ylmethyl)-2,4,7-trioxodecahydroazeto[2',1 ':3,4]pyrazino[1.2-a][1,3,5]triazine-9-carboxamide [Compound 20D] | A (a CPE inhibition effect of 5% or more)
(6R,9S,11aR)-11b-Hydroxy-6-isopropyl-N-(naphthalen-2-ylmethyl)-2,4,7-trioxo-1,3-bis(thien-2-ylmethyl)decahydro- 2H-pyrrolo[2',1':3,4] pyridazine[1,2-a][1,3,5] triazine-9-carboxamide [Compound 27D] | A (a CPE inhibition effect of 5% or more)
(6R,9S,11aR,11bR)-1,3-Dibenzyl-9-(4-fluoroisoindolin-2-carbonyl)-11b-hydroxy-6-isopropylhexahydro -2H-pyrrolo[2',1':3,4]pyri dazino[1,2-a][1,3,5] triazine-2.4. 7(3H.6H)-trione [Compound 3J] | A (a CPE inhibition effect of 5% or more)
(6R,9S,11aR,11bR)-1,3-Dibenzyl-11b-hydroxy-6-(4 -methoxybenzyl)-N-(naphthalen-2-ylmethyl)-2,4,7-trioxodecahydro-2H-pyrrolo[2',1':3,4] pyridazino[1,2-a][1.3.5] triazine-9-carboxamide [Compound 6D] | B (a CPE inhibition effect of less than 5% but 1% or more)
(6R,9S,11aR,11bR)-1,3-Dibenzyl-11b-hydroxy-6-isopropyl-2,4,7-trioxo-phenyl-deca-hydro-2H-pyrrolo [2',1':3,4]pyrazino[1, 2-a][1,3,5]triazine-9-carboxamide [Compound 3G] | A (a CPE inhibition effect of 5% or more)
(6R,9S,11aR,11bR)-1,3-Dibenzyl-11b-hydroxy-6-isopropyl-N-(naphthalen-2-ylmethyl)-2,4,7-trioxodecahydro-2H-pyrrolo[ 2',1':3,4]pyrazino[1,2-a] [1,3,5]triazine^-9^-carbamide [Compound 3D] | A (a CPE inhibition effect of 5% or more)
(6R,9S,11aR,11bR)-1,3-Dibenzyl-11b-hydroxy-N,6-bis(naphthalen-2-ylmethyl)-2.4.7-trioxodecahydro-2H-pyrrolo[2'.1':3,4] pyrazino[1,2-a][1,3,5] triazine-9-carboxamide [Compound 7D] | B (a CPE inhibition effect of less than 5% but 1% or more)
(6R,9S,11aR,11bR)-1,3-bis(furan-2-ylmethyl)-11b-hydroxy-6-isopropyl-N-(naphthalen-2-ylmethyl)-2,4,7-trioxodecahydro-2H-pyrrolo[2',1':3,4]pyridazin e[1,2-a] [1,3,5]triazine-9-carboxamide [Compound 28D] | A (a CPE inhibition effect of 5% or more)
(6R,9S,11aR,11bR)-6-benzyl-11b-hydroxy-N-(naphthalen-2-ylmethyl)-2 ,4,7-trioxo-1,3-bis (thien-2-ylmethyl) decahydro-2H-pyrrolo [2',1':3,4]pyridazino[1,2-a] [1.3,5]triazine-9-carboxamide [Compound 18D] | C (less than 1%)
(6R,10R,11aR)-1.3,6-tribenzyl-10-(benzyl oxy)-11b-hydroxyhexahydro-2H-pyrrolo [2',1':3,4]pyrazino[1,2-a][1.3,5] triazine-2,4,7(3H.6H)-trione [Compound 15A] | C (less than 1%)
(6R,10R.11aS)-1,3.6-tribenzyl-10-(benzyl oxy)-11b-hydroxyhexahydro-2H-pyrrolo [2',1':3,4]pyridazino[1,2-a][1,3,5 triazine-2,4,7(3H.6H)-trione [Compound 14A] | B (a CPE inhibition effect of less than 5% but 1% or more)
(6R.9S)-1.3-benzyl-6-(4-fluorobenzyl)-N-(naphthalen-2-ylmethyl)-2, 4,7-trioxo-1,3,4,6,7,9,10,11-octahydro-2H-pyrrolo [2',1':3,4]pyridazine [1,2-a][1,3,5]triazine-9-carboxamide [Compound 5E] | C (less than 1%)
(6R.9S.11aR.11bR)-1,3-Dibenzyl-6-(4-fluorobenzyl)-11b-hydroxy-N-(naphthalen-2-yl methyl)-2,4,7-trioxodecahydro-2H-pyrrolo[2',1':3,4]pyridazine [1,2-a][1,3,5]triazine-9-carboxamide [Compound 5D] | A (a CPE inhibition effect of 5% or more)
(6R.11aR)-1,3,6-tribenzyl-11b-hydroxy-11a-methylhexahydro-2H-pyrrolo[2',1':3,4] pyrazino[1,2-a][1,3,5] triazine-2,4,7(3H,6H)-trione [Compound 19A] | A (a CPE inhibition effect of 5% or more)
(6S,9R,11aS,11bS)-1,3,6-Tri benzyl-11b-hydroxy-2,4,7-tri oxodecahydro-2H-pyrrolo [2',1':3,4]pyridazine[1,2-a] [1,3,5]triazine-9-carboxylic acid [Compound 4C] | C (less than 1%)
(6S,9R,11aS,11bS)-1,3,6-Tribenzyl-11b-hydroxy-N-(naphthalen-2-ylmethyl)-2,4 ,7-trioxo-2H-pyrrolo [2',1':3,4]pyrazino [1,2-a][1,3,5]triazine-9-carboxamide [Compound 4D] | A (a CPE inhibition effect of 5% or more)
(6S,9R,11aS,11bS)-1,3-Dibenzyl-11b-hydroxy-6-isopropyl-N-(naphthalen-2^-ylmethyl)-2,4,7-trioxodecahydro-2H-pyrrolo[2',1':3,4]pyrazino[ 1,2-a][1,3,5]triazine-9-carboxamide [Compound 26D] | A (a CPE inhibition effect of 5% or more)
(6S,11a8)-1,3,6-tribenzyl-11b-hydroxy-11a-methylhexahydro-2H-pyrrolo[2',1':3,4]pyrazino [1,2-a][1,3,5]triazine-2,4,7(3H,6 H)-trione [Compound 12A] | B (a CPE inhibition effect of less than 5% but 1% or more)
(6S,13aS)-1,3,6-tribenzyl-13b-hydroxy-1,13,13a,13b-tetrahydro-2H-[1,3,5] triazino[2',1':3,4]pyraz ino[1,2-a]indole-2,4.7(3H,6H)-trione [Compound 24A] | C (less than 1%)

Same assay, conditions: Severe acute respiratory syndrome coronavirus 2, VeroE6/TMPRSS2, 72 h, read-out: Anti SARS-CoV-2 activity

Compound | inhibition at 10 µM [%]
O=C(NCc1ccc2ccccc2c1)[C@@H]1CC[C@H]2N1C(=O)C1(Cc3ccccc3C1)N1C(=O)N(Cc3ccccc3)C(=O)N(Cc3ccccc3)C21O (stereo partly drawn) [Compound 21D, (9'S,11a'R)-1',3'-Dibenzyl-11b'-Hydroxy-N-(naphthalen-2-ylmethyl)-2',4',7'-trioxo-1,1',3,3',4',9',10',11',11a',1 1b'-decahydro-2'H,7'H-spiro[indene-2,6'-pyrrolo[2',1':3,4]pyrazino[1,2-a][1,3,5]triazine]-9'-carboxamide] | 1 to 5
COC(=O)[C@@H]1CCC[C@H]2N1C(=O)[C@@H](Cc1ccccc1)N1C(=O)N(Cc3ccccc3)C(=O)N(Cc3ccccc3)C21O (stereo partly drawn) [Compound 25A, Methyl (6R,9S,12aR)-1,3,6-tribenzyl-12b-hydroxy-2,4,7-trioxododecahydropyri do[2',1':3,4]pyrazino[1,2-a][1,3,5]triazine-9-carboxylate] | > 5
O=C(NCc1ccc2ccccc2c1)[C@H]1CCCC2=C3N(Cc4ccccc4)C(=O)N(Cc4ccccc4)C(=O)N3[C@H](Cc3ccccc3)C(=O)N21 [Compound 25E, (6R,9R)-1,3,6-Tribenzyl-N-(naphthalen-2-ylmethyl)-2,4,7-trioxo-1,2,3,4,6,7,9,10,11,12-decahydropyrido[2',1':3,4] pyrazino[1,2-a][1,3,5]triazine-9-carboxamide] | 1 to 5
CCOC(=O)[C@H]1CC[C@@H]2N1C(=O)[C@H](C(C)C)N1C(=O)N(Cc3ccccc3)C(=O)N(Cc3ccccc3)[C@@]21O [Compound 26A, Ethyl (6S,9R,11aS,11bS)-1,3-dibenzyl-11b-hydroxy-6-isopropyl-2,4,7-trioxodecahydro-2H-pyrrolo[2',1':3,4]pyrazi no[1,2-a][1,3,5] triazine-9-carboxylate] | > 5
CCOC(=O)[C@@H]1CC[C@H]2N1C(=O)[C@@H](C(C)C)N1C(=O)N(Cc3ccco3)C(=O)N(Cc3ccco3)[C@]21O [Compound 28A, Ethyl (6R,9S,11aR,11bR)-1,3-bis(furan-2-ylmethyl)-11b-hydroxy-6-isopropyl-2,4,7-trioxodecahydro-2H-pyrrolo[2',1':3,4] pyrazino[1,2-a][1,3,5] triazine-9-carboxylate] | > 5
CC(C)[C@@H]1C(=O)N2[C@H](C(=O)NCc3cnc4ccccc4c3)CC[C@@H]2[C@@]2(O)N(Cc3ccco3)C(=O)N(Cc3ccco3)C(=O)N12 [Compound 28F, (6R,9S,11aR,11bR)-1,3-bis(2-furylmethyl)-11b-hydroxy-6-isopropyl-2,4,7-trioxo-N-(3-quinolylmethyl)decahydro-2H-pyrrolo[2',1':3,4]pyrazino[1,2-a][1,3,5]triazine-9-carboxamide] | > 5
CCOC(=O)[C@@H]1CC[C@H]2N1C(=O)[C@@H](CC)N1C(=O)N(Cc3ccccc3)C(=O)N(Cc3ccccc3)[C@]21O [Compound 29A, Ethyl (6R,9S,11aR,11bR)-1,3-dibenzyl-6-ethyl-11b-hydroxy-2,4,7-trioxodecahydro-2H-pyrrolo[2',1':3,4]pyrazi no[1,2-a][1,3,5] triazine-9-carboxylate] | > 5
CC[C@@]1(C(C)C)C(=O)N2[C@H](C(=O)NCc3ccc4ccccc4c3)CC[C@@H]2[C@@]2(O)N(Cc3ccccc3)C(=O)N(Cc3ccccc3)C(=O)N21 [Compound 29D, (6R,9S,11aR,11bR)-1,3-Dibenzyl-6-ethyl-11b-hydroxy-6-isopropyl-N-(naphthalen-2-ylmethyl)-2,4,7-trioxodecahydro-2H-pyrrolo[2',1':3,4] pyrazino[1,2-a][1,3,5] triazine-9-carboxamide] | > 5
